Results reported in patent US20150315218A1, “SALTS OF PRODRUGS OF PIPERAZINE AND SUBSTITUTED PIPERIDINE ANTIVIRAL AGENTS” (Bristol-Myers Squibb Company, priority 2004, published 2015).
Structures can show the parent of a compound that is named as a salt.

How the values were obtained:
[1] = Single-dose oral toxicokinetic study of prodrugs in rats; assay type: in vivo, rat; conditions: for half-life / AUC / Cmax: plasma; for C24 h: mean
Experimental: A 1-day oral toxicokinetic study in rats was conducted using the prodrug Iab (monolysine salt). Iab was administered at dosages of 16, 72, and 267 mg/kg (free acid) by oral gavage to three male rats/group using water as the vehicle (solution formulation). The dosages of prodrug free acid correspond to IVa (parent) molar equivalent dosages of 13, 57, and 211 mg/kg, respectively. The endpoint evaluated was plasma toxicokinetics of Iab and IVa in the individual rats.
A 1-day oral toxicokinetic study in rats was conducted by using the prodrug Ibb (monolysine salt). Ibb was administered at dosages of 19, 64, and 236 mg/kg (free acid) by oral gavage to three male rats/group using water as the vehicle (solution formulation).
A 1-day oral toxicokinetic study in rats was conducted using the prodrug Icb (disodium salt). Icb was administered at dosages of 5, 25, and 200 mg/kg (free acid) by oral gavage to three male rats/group using water as the vehicle (solution formulation).

[2] = IV and PO pharmacokinetic studies of prodrug salts (Iab, Ibb, Icb) in the monkey, with historical parent data; assay type: in vivo, cynomolgus monkeys; conditions: for half-life: after IV prodrug, read-out: t1/2 (hr), IV (converted); for clearance / Vd: prodrug after IV administration; for clearance: read-out: CLtot (mL/min/kg), IV; for Vd: read-out: Vdss (L/kg), IV
Experimental: The IV and PO studies of Iab were conducted in a crossover fashion in three male cynomolgus monkeys (11±1.2 kg, Charles River Biomedical Research Foundation, Houston, Tex.). There was a two-week washout period between the IV and PO studies.
In the IV study, Iab was infused via the femoral vein at 1.3 mg/kg (free acid, or 1.1 mg/kg of IVa equivalent) over 5 min at a constant rate of 0.1 mL/kg/min. The concentration of the dosing solution was 2.6 mg/mL, and the dosing volume was 0.5 mL/kg. Serial blood samples were collected from the femoral artery before dosing and at 5, 10, 15, 30, 45 min, 1, 2, 4, 6, 8 and 24 hr after dosing.
In the PO study, the monkeys were fasted overnight before dosing. Iab was administered by oral gavage at 7.1 mg/kg (free acid, or 5.6 mg/kg of IVa equivalent). The concentration of the dosing solution was 14.2 mg/mL, and the dosing volume was 0.5 mL/kg. Serial blood samples were collected before dosing and at 15, 30, 45 min, 1, 2, 4, 6, 8 and 24 hr after dosing.
The IV and PO studies of Ibb were conducted in a crossover fashion in three male cynomolgus monkeys (9.9±2.4 kg, Charles River Biomedical Research Foundation, Houston, Tex.). There was a two-week washout period between the IV and PO studies.
The concentration of the dosing solution was 2.7 mg/mL, and the dosing volume was 0.5 mL/kg. Serial blood samples were collected from the femoral artery before dosing and at 5, 10, 15, 30, 45 min, 1, 2, 4, 6, 8 and 24 hr after dosing.
In the PO study, the monkeys were fasted overnight before dosing. […] The concentration of the dosing solution was 5.8 mg/mL, and the dosing volume was 1 mL/kg. Serial blood samples were collected before dosing and at 15, 30, 45 min, 1, 2, 4, 6, 8 and 24 hr after dosing.
The IV and PO studies of Icb were conducted in a crossover fashion in three male cynomolgus monkeys (10±1.6 kg, Charles River Biomedical Research Foundation, Houston, Tex.). There was a two-week washout period between the IV and PO studies.
The concentration of the dosing solution was 2.8 mg/mL, and the dosing volume was 0.5 mL/kg. Serial blood samples were collected from the femoral artery before dosing and at 5, 10, 15, 30, 45 min, 1, 2, 4, 6, 8 and 24 hr after dosing.
In the PO study, the monkeys were fasted overnight before dosing. […] The concentration of the dosing solution was 9.8 mg/mL, and the dosing volume was 0.5 mL/kg. Serial blood samples were collected before dosing and at 15, 30, 45 min, 1, 2, 4, 6, 8 and 24 hr after dosing.

[3] = male, cynomolgus monkey, plasma, monkey, analyte = label
[4] = male, cynomolgus monkey, plasma, monkey

SMILES: COc1cnc(OC)c2c1c(C(=O)C(=O)N1CCN(C(=O)c3ccccc3)CC1)cn2COP(=O)(O)O [Iab, {3-[(4-benzoylpiperazin-1-yl)(oxo)acetyl]-4,7-dimethoxy-1H-pyrrolo[2,3-c]pyridin-1-yl}methyl dihydrogen phosphate, L-lysine salt (1:1)]
- half-life ([1]; CD, rat, male rats, Iab 16 mg/kg PO, analyte = label, read-out: T½ (converted)): 38.4 min
- half-life ([1]; CD, rat, male rats, Iab 72 mg/kg PO, analyte = label, read-out: T½ (converted)): 22.2 min
- AUC ([1]; CD, rat, male rats, Iab 267 mg/kg PO, AUC from zero to time of last quantifiable sample, read-out: AUC): 0.057 µM·h
- half-life ([1]; CD, rat, male rats, Iab 267 mg/kg PO, analyte = label, read-out: T½ (converted)): 2.7 min
- Cmax ([1]; CD, rat, male rats, single oral dose Iab 16 mg/kg (13 mg/kg IVa molar equiv.), water, analyte = label): 68 nM
- Cmax ([1]; CD, rat, male rats, single oral dose Iab 72 mg/kg (57 IVa equiv.), analyte = label): 95 nM
- Cmax ([1]; CD, rat, male rats, single oral dose Iab 267 mg/kg (211 IVa equiv.), analyte = label): 110 nM
- C24 h (μM) ([1]; male rats, Iab 16 mg/kg PO, analyte = label): <LLQ^1
- C24 h (μM) ([1]; male rats, Iab 72 mg/kg PO, analyte = label): <LLQ
- C24 h (μM) ([1]; male rats, Iab 267 mg/kg PO, analyte = label): <LLQ
- AUC ([1]; male, CD, rat, po, 16 mg/kg, read-out: AUC): 0.02 µM·h
- AUC ([1]; male, CD, rat, po, 72 mg/kg, read-out: AUC): 0.049 µM·h
- plasma AUC of the prodrug relative to that of the parent ([1]; rats, single oral dose of Iab): ≤ 0.03%
- concentration at 15 min ([2]; male, cynomolgus monkey, plasma, po, monkey, LLQ = 5 nM, read-out: prodrug detected in plasma after oral administration): 18 nM
- AUC ([2]; male, cynomolgus monkey, plasma, monkey, after IV prodrug (~1.1 mg/kg parent equivalent), analyte = label, read-out: AUCtot (μM · hr), IV): 9.5 ± 0.38 µM·h
- half-life [2, 3]: 1 h
- clearance [2, 4]: 4.4 mL/min/kg
- Vd [2, 4]: 0.048 L/kg

SMILES: O=C(C(=O)N1CCN(C(=O)c2ccccc2)CC1)c1cn(COP(=O)(O)O)c2c(-n3ccnn3)ncc(F)c12 [Ibb, [3-[(4-benzoylpiperazin-1-yl)(oxo)acetyl]-4-fluoro-7-(1H-1,2,3-triazol-1-yl)-1H-pyrrolo[2,3-c]pyridin-1-yl]methyl dihydrogen phosphate, L-lysine salt (1:1)]
- C24 h ([1]; male rats, single oral dose Ibb 19 mg/kg (IVb molar equiv. 15 mg/kg)): <LLQ
- C24 h ([1]; male rats, single oral dose Ibb 64 mg/kg (IVb molar equiv. 51 mg/kg)): <LLQ
- C24 h ([1]; male rats, single oral dose Ibb 236 mg/kg (IVb molar equiv. 190 mg/kg)): <LLQ
- Cmax ([1]; male, Sprague Dawley, rat, po, 19 mg/kg): 27 nM
- AUC ([1]; male, Sprague Dawley, rat, po, 19 mg/kg, read-out: AUC from zero to last time point): 0.03 µM·h
- half-life ([1]; male, Sprague Dawley, rat, po, 19 mg/kg, read-out: T1/2 (converted)): 78 min
- Cmax ([1]; male, Sprague Dawley, rat, po, 64 mg/kg): 140 nM
- AUC ([1]; male, Sprague Dawley, rat, po, 64 mg/kg, read-out: AUC from zero to last time point): 0.18 µM·h
- half-life ([1]; male, Sprague Dawley, rat, po, 64 mg/kg, read-out: T1/2 (converted)): 276 min
- Cmax ([1]; male, Sprague Dawley, rat, po, 236 mg/kg): 250 nM
- AUC ([1]; male, Sprague Dawley, rat, po, 236 mg/kg, read-out: AUC from zero to last time point): 0.49 µM·h
- half-life ([1]; male, Sprague Dawley, rat, po, 236 mg/kg, read-out: T1/2 (converted)): 216 min
- half-life [2, 3]: 0.1 h
- clearance [2, 4]: 28 mL/min/kg
- Vd [2, 4]: 0.15 L/kg
- prodrug detected in plasma after oral administration ([2]; monkey, LLQ = 5 nM): not detected

SMILES: COc1cnc(-n2cnc(C)n2)c2c1c(C(=O)C(=O)N1CCN(C(=O)c3ccccc3)CC1)cn2COP(=O)(O)O [Icb, [3-[(4-benzoylpiperazin-1-yl)(oxo)acetyl]-4-methoxy-7-(3-methyl-1H-1,2,4-triazol-1-yl)-1H-pyrrolo[2,3-c]pyridin-1-yl]methyl dihydrogen phosphate, 2-amino-2-(hydroxymethyl)propane-1,3-diol salt (1:1)]
- prodrug concentrations in plasma ([1]; male, CD, rat, in vivo, 200 mg/kg): 0.02 to 0.04 µM
- prodrug in plasma ([1]; rat, in vivo, 25 mg/kg): not detected
- T1/2 ([2]; male, cynomolgus monkey, in vivo, iv, […]): 5.34 ± 1.86 min
